Here are results for 16 compounds from patent publication US11866450B2, “Modulators of Cystic Fibrosis Transmembrane Conductance regulator, pharmaceutical compositions, methods of treatment, and process for making the modulators” (priority 2018, dated 2024).

Where two headings read alike, the source gives them in different places.

The conditions of data set [1]: snar bond.
The conditions of data set [2]: snar bond. The source holds these as a separate data set.
Data set [3] concerns the target CFTR-mediated chloride transport (Homo sapiens, UniProt P13569). In kind it is cell-based. As to conditions: enteroid cells incubated with test compound 18-24 hours, acute 10 μM forskolin and 300 nM Compound III; for Max. Activity: % of chloride transport with 3 μM Compound A, 3 μM Compound II and 300 nM acute Compound III triple combination control. In a few lines:
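Human intestinal enteroid cells incubated with compound 18–24 h at 37° C., then membrane potential dye (FLIPR) read 15 min after chloride-free stimulation with 10 μM forskolin, 100 μM IBMX and 300 nM Compound III. AUC expressed as % of triple-combination control (3 μM Compound A, 3 μM Compound II, 300 nM Compound III).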

Sequence of CFTR-mediated chloride transport (P13569 whole entry, looked up): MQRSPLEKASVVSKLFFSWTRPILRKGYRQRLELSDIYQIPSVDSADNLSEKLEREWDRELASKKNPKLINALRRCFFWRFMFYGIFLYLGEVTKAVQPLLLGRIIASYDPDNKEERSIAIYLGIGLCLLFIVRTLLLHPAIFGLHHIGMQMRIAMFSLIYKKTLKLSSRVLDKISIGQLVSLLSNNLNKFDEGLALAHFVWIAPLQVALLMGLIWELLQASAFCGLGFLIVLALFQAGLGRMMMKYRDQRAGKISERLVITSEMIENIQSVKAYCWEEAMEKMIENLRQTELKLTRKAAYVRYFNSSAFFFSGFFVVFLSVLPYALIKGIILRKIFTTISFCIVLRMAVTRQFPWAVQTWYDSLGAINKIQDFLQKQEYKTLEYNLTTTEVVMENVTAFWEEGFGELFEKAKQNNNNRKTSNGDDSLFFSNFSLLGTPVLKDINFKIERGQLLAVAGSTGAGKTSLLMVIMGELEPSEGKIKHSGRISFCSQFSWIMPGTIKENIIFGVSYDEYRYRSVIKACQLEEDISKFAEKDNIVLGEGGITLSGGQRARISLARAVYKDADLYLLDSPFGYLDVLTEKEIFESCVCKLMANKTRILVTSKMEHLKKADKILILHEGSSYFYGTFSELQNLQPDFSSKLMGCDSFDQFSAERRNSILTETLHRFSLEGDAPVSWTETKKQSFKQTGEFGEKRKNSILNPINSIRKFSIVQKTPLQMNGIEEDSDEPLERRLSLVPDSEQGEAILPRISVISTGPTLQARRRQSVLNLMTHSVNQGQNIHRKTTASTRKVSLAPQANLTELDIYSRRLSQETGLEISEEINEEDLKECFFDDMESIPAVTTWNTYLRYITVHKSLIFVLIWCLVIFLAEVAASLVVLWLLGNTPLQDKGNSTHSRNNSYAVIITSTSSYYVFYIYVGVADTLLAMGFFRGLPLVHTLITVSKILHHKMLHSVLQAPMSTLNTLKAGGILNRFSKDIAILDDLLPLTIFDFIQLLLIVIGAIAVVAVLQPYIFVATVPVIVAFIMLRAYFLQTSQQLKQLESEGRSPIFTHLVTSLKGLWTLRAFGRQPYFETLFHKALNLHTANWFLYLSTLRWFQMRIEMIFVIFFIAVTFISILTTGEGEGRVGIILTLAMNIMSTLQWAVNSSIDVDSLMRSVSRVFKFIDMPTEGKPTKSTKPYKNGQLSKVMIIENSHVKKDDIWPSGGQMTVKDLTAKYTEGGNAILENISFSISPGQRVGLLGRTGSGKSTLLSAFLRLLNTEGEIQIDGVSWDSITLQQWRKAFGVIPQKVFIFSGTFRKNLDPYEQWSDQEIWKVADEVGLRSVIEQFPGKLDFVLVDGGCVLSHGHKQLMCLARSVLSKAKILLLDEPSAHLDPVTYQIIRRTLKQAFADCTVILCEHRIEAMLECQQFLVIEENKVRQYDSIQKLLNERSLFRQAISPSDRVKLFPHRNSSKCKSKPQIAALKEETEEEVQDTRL

Turning to `CC1(C)CC2CC(F)CNc3cccc(n3)S(=O)(=O)NC(=O)c3ccc(-n4ccc(OCCC5C6(CC6)C56CC6)n4)nc3N1C2` (stereo not shown), the ring closure, isolated yield in data set [1] (from 2-chloro-N-[[6-[[3-(5,5-dimethylpyrrolidin-3-yl)-2-fluoro-propyl]amino]-2-pyridyl]sulfonyl]-6-[3-(2-dispiro[2.0.2.1]heptan-7-ylethoxy)pyrazol-1-yl]pyridine-3-carboxamide (dihydrochloride salt), 15-membered ring, K2CO3, NMP, 32.3 mM, 150.0 °C) was 76%.
As to `CC1(C)CC2CCCCNc3ccc(cn3)S(=O)(=O)NC(=O)c3ccc(-n4ccc(OCC5C6(CC6)C56CC6)n4)nc3N1C2` (stereo not shown), in data set [1] (from 2-chloro-N-[[6-[4-(5,5-dimethylpyrrolidin-3-yl)butylamino]-3-pyridyl]sulfonyl]-6-[3-(dispiro[2.0.2.1]heptan-7-ylmethoxy)pyrazol-1-yl]pyridine-3-carboxamide (dihydrochloride salt), 17-membered ring, K2CO3/CsF, NMP, 115.5 mM), the ring closure, isolated yield amounted to 22%.
For the compound `CC1(C)CCC2CCCNc3cccc(n3)S(=O)(=O)NC(=O)c3ccc(-n4ccc(OCC5C6(CC6)C56CC6)n4)nc3N21` (stereo not shown), in data set [1] (from 2-chloro-N-[[6-[3-(5,5-dimethylpyrrolidin-2-yl)propylamino]-2-pyridyl]sulfonyl]-6-[3-(dispiro[2.0.2.1]heptan-7-ylmethoxy)pyrazol-1-yl]pyridine-3-carboxamide (dihydrochloride salt), 14-membered ring, K2CO3/CsF, NMP, 123.1 mM), the ring closure, isolated yield turned out to be 41%.
In data set [1] (from CC1(C)C[C@H](CCCNc2cc(OCc3ccccc3)cc(S(=O)(=O)NC(=O)c3ccc(-n4ccc(OCCC5C6(CC6)C56CC6)n4)nc3Cl)n2)CN1, 15-membered ring, K2CO3/CsF, DMSO, 15.3 mM, 160.0 °C, 15.0 h), `CC1(C)C[C@@H]2CCCNc3cc(OCc4ccccc4)cc(n3)S(=O)(=O)NC(=O)c3ccc(-n4ccc(OCCC5C6(CC6)C56CC6)n4)nc3N1C2` came in with a ring closure, isolated yield of 61%.
With `CC1(C)C[C@@H]2CCCNc3cccc(n3)S(=O)(=O)NC(=O)c3ccc(Cl)nc3N1C2`, the ring closure, isolated yield in data set [1] (from 2,6-dichloro-N-[[6-[3-[(3S)-5,5-dimethylpyrrolidin-3-yl]propylamino]-2-pyridyl]sulfonyl]pyridine-3-carboxamide (dihydrochloride salt), 15-membered ring, K2CO3/CsF/3A MS, NMP, 113.8 mM, 150.0 °C) amounted to 54%.
As to `CC1(C)C[C@@H]2CCCNc3cccc(n3)S(=O)(=O)NC(=O)c3ccc(N4CCC(OCCC5C6(CC6)C56CC6)C4=O)nc3N1C2` (stereo partly shown), in data set [1] (from 2-chloro-N-[[6-[3-[(3S)-5,5-dimethylpyrrolidin-3-yl]propylamino]-2-pyridyl]sulfonyl]-6-[3-(2-dispiro[2.0.2.1]heptan-7-ylethoxy)-2-oxo-pyrrolidin-1-yl]pyridine-3-carboxamide (dihydrochloride salt), 15-membered ring, K2CO3, NMP, 24.0 mM, 150.0 °C), the ring closure, isolated yield was 52%.
Take `CC1(C)C[C@@H]2CCCNc3nc(ccc3OCc3ccccc3)S(=O)(=O)NC(=O)c3ccc(-n4ccc(OCCCC5(C(F)(F)F)CC5)n4)nc3N1C2`: the ring closure, isolated yield in data set [1] (from CC1(C)CC(CCCNc2nc(S(=O)(=O)NC(=O)c3ccc(-n4ccc(OCCCC5(C(F)(F)F)CC5)n4)nc3Cl)ccc2OCc2ccccc2)CN1, 15-membered ring, K2CO3/CsF, DMSO, 17.7 mM, 160.0 °C, 15.0 h) came out at 82%.
As for `CC(C)C(COc1ccn(-c2ccc3c(n2)N2CC(CC2(C)C)OCCNc2cccc(n2)S(=O)(=O)NC3=O)n1)C(C)C` (stereo not shown) [Compound 238, 12,12-dimethyl-8-{3-[3-methyl-2-(propan-2-yl)butoxy]-1H-pyrazol-1-yl}-15-oxa-2λ^6-thia-3,9,11,18,23-pentaazatetracyclo[17.3.1.111,14.05,10]tetracosa-1(23),5(10),6,8,19,21-hexaene-2,2,4-trione], the ring closure, yield after HPLC in data set [2] (from CC(C)C(COc1ccn(-c2ccc(C(=O)NS(=O)(=O)c3cccc(NCCOC4CN(C(=O)OC(C)(C)C)C(C)(C)C4)n3)c(Cl)n2)n1)C(C)C, 15-membered ring, K2CO3/CsF/3A MS, DMSO, 78.4 mM, 140.0 °C, 2 steps) is 44%. In addition, in data set [3], the concentration giving a half-maximal response (EC50) is less than 1000 nM and the “Max. Activity” value is “+++ (+++ is >60%)”.
The compound `[2H]C1(CCOc2ccn(-c3ccc4c(n3)N3C[C@@H](CCCNc5cccc(n5)S(=O)(=O)NC4=O)CC3(C)C)n2)C2(CC2)C12CC2` [Compound 253, (14S)-8-(3-{2-[(7-deuterio)dispiro[2.0.2.1]heptan-7-yl]ethoxy}-1H-pyrazol-1-yl)-12,12-dimethyl-2λ^6-thia-3,9,11,18,23-pentaazatetracyclo[17.3.1.111,14.05,10]tetracosa-1(22),5,7,9,19(23),20-hexaene-2,2,4-trione] had a ring closure, yield after HPLC in data set [2] (from [2H]C1(CCOc2ccn(-c3ccc(C(=O)NS(=O)(=O)c4cccc(NCCC[C@@H]5CN(C(=O)OC(C)(C)C)C(C)(C)C5)n4)c(Cl)n3)n2)C2(CC2)C12CC2, 15-membered ring, K2CO3/CsF/3A MS, DMSO, 20.4 mM, 150.0 °C, 2 steps) of 43%. Besides, in data set [3], the 50% effective concentration (EC50) is less than 1000 nM and the “Max. Activity” value is on record as “+++ (+++ is >60%)”.
In data set [2] (from CC(C)(C)OC(=O)N1C[C@@H](CCCNc2cccc(S(=O)(=O)NC(=O)c3ccc(-n4ccc(OCC5C(C)(C)C5(C)C)n4)nc3Cl)n2)CC1(C)C, 15-membered ring, TFA/DCM, then K2CO3/CsF/3A MS, DMSO, 23.1 mM, 150.0 °C, 2 steps), `CC1(C)C[C@@H]2CCCNc3cccc(n3)S(=O)(=O)NC(=O)c3ccc(-n4ccc(O)n4)nc3N1C2` [Compound 256, (14S)-8-(3-hydroxy-1H-pyrazol-1-yl)-12,12-dimethyl-2λ^6-thia-3,9,11,18,23-pentaazatetracyclo[17.3.1.111,14.05,10]tetracosa-1(22),5,7,9,19(23),20-hexaene-2,2,4-trione] displayed a ring closure, yield after HPLC of 17%. In addition, in data set [3], the EC50 is more than 3000 nM and the “Max. Activity” value was “++ (++ is 30-60%)”.
`CC1(C)C[C@@H]2CCCNc3cccc(n3)S(=O)(=O)NC(=O)c3ccc(-n4cccc(OCCC5(C(F)(F)F)CC5)c4=O)nc3N1C2` [Compound 268, (14S)-12,12-Dimethyl-8-(2-oxo-3-{2-[1-(trifluoromethyl)cyclopropyl]ethoxy}-1,2-dihydropyridin-1-yl)-2λ^6-thia-3,9,11,18,23-pentaazatetracyclo[17.3.1.111,14.05,10]tetracosa-1(23),5(10),6,8,19,21-hexaene-2,2,4-trione] gave a ring closure, yield after HPLC in data set [2] (from CC(C)(C)OC(=O)N1C[C@@H](CCCNc2cccc(S(=O)(=O)NC(=O)c3ccc(-n4cccc(OCCC5(C(F)(F)F)CC5)c4=O)nc3Cl)n2)CC1(C)C, 15-membered ring, K2CO3/CsF/3A MS, DMSO, 12.0 mM, 150.0 °C, 2 steps) of 49%. For the same compound, in data set [3], the EC50 is more than 3000 nM and the “Max. Activity” value was “++ (++ is 30-60%)”.
`[2H]C([2H])(COc1ccn(-c2ccc3c(n2)N2C[C@@H](CCCNc4cccc(n4)S(=O)(=O)NC3=O)CC2(C)C)n1)CC1(C(F)(F)F)CC1` [Compound 270, (14S)-12,12-Dimethyl-8-(3-{3-[1-(trifluoromethyl)cyclopropyl]-2,2-dideuterio-propoxy}-1H-pyrazol-1-yl)-2λ^6-thia-3,9,11,18,23-pentaazatetracyclo[17.3.1.111,14.05,10]tetracosa-1(23),5(10),6,8,19,21-hexaene-2,2,4-trione] yielded a ring closure, yield after HPLC in data set [2] (from [2H]C([2H])(COc1ccn(-c2ccc(C(=O)NS(=O)(=O)c3cccc(NCCC[C@@H]4CN(C(=O)OC(C)(C)C)C(C)(C)C4)n3)c(Cl)n2)n1)CC1(C(F)(F)F)CC1, 15-membered ring, TFA/DCM, then K2CO3/CsF/3A MS, DMSO, 27.0 mM, 150.0 °C, 2 steps) of 44%. Moreover, in data set [3], the EC50 was less than 1000 nM and the “Max. Activity” value was “+++ (+++ is >60%)”.
As for `CC1(C)CC2CCn3ccc(n3)S(=O)(=O)NC(=O)c3ccc(-n4ccc(OCCCC5(C(F)(F)F)CC5)n4)nc3N1C2` (stereo not shown) [Compound 273, 19,19-Dimethyl-4-(3-{3-[1-(trifluoromethyl)cyclopropyl]propoxy}-1H-pyrazol-1-yl)-10λ^6-thia-1,3,9,14,21-pentaazatetracyclo[15.2.1.111,14.02,7]henicosa-2,4,6,11(21),12-pentaene-8,10,10-trione], in data set [2] (from CC1(C)CC(CCn2ccc(S(=O)(=O)NC(=O)c3ccc(-n4ccc(OCCCC5(C(F)(F)F)CC5)n4)nc3Cl)n2)CN1, 13-membered ring, K2CO3/CsF/3A MS, DMSO, 25.5 mM, 150.0 °C), the ring closure, yield after HPLC worked out at 11%. In data set [3], the 50% effective concentration (EC50) was less than 1000 nM and the “Max. Activity” value is “+ (+ is <30%)”.
In data set [2] (from CC1(C)CC(CCCCn2ccc(S(=O)(=O)NC(=O)c3ccc(-n4ccc(OCCCC5(C(F)(F)F)CC5)n4)nc3Cl)n2)CN1, 15-membered ring, K2CO3/CsF/3A MS, DMSO, 24.7 mM, 150.0 °C, 18.0 h), `CC1(C)CC2CCCCn3ccc(n3)S(=O)(=O)NC(=O)c3ccc(-n4ccc(OCCCC5(C(F)(F)F)CC5)n4)nc3N1C2` (stereo not shown) [Compound 275, 21,21-Dimethyl-4-(3-{3-[1-(trifluoromethyl)cyclopropyl]propoxy}-1H-pyrazol-1-yl)-10λ^6-thia-1,3,9,14,23-pentaazatetracyclo[17.2.1.111,14.02,7]tricosa-2,4,6,11(23),12-pentaene-8,10,10-trione] showed a ring closure, yield after HPLC of 47%. Further, in data set [3], the EC50 fell in the range of 1000 to 3000 nM and the “Max. Activity” value is given as “++ (++ is 30-60%)”.
With `Cc1nn2cc1S(=O)(=O)NC(=O)c1ccc(-n3ccc(OCC(C)(C)C(F)(F)F)n3)nc1N1CC(CCC2)CC1(C)C` (stereo not shown) [Compound 281, 12,20,20-trimethyl-4-[3-(3,3,3-trifluoro-2,2-dimethylpropoxy)-1H-pyrazol-1-yl]-10λ^6-thia-1,3,9,13,14-pentaazatetracyclo[16.2.1.111,14.02,7]docosa-2,4,6,11(22),12-pentaene-8,10,10-trione], the ring closure, yield after HPLC in data set [2] (from Cc1nn(CCCC2CNC(C)(C)C2)cc1S(=O)(=O)NC(=O)c1ccc(-n2ccc(OCC(C)(C)C(F)(F)F)n2)nc1Cl, 14-membered ring, K2CO3/CsF/3A MS, DMSO, 25.9 mM, 150.0 °C) is 17%. In data set [3], the concentration giving a half-maximal response (EC50) fell in the range of 1000 to 3000 nM and the “Max. Activity” value is listed as “+ (+ is <30%)”.
In data set [2] (from CC1(C)C[C@H](CCCNc2cccc(S(=O)(=O)NC(=O)c3ccc(C4=CCCCO4)nc3Cl)n2)CN1, 15-membered ring, K2CO3, NMP, 25.7 mM, 180.0 °C), `CC1(C)C[C@@H]2CCCNc3cccc(n3)S(=O)(=O)NC(=O)c3ccc(C4=CCCCO4)nc3N1C2` [Compound 303, (14S)-8-(3,4-dihydro-2H-pyran-6-yl)-12,12-dimethyl-2λ^6-thia-3,9,11,18,23-pentaazatetracyclo[17.3.1.111,14.05,10]tetracosa-1(22),5,7,9,19(23),20-hexaene-2,2,4-trione] came in with a ring closure, yield after HPLC of 3%. In data set [3], the half-maximal effective concentration (EC50) is less than 1000 nM and the “Max. Activity” value is listed as “+++ (+++ is >60%)”.
